# Laboratory results from patent US20230414771A1, “PREPARATION AND USE OF IMMUNOSTIMULATORY CONJUGATED COMPLEXES FOR TARGETED DELIVERY AND ACTIVATION” (YAFEI SHANGHAI BIOLOGY MEDICINE SCIENCE & TECHNOLOGY CO., …, priority 2020, published 2023).
# Where two headings read alike, the source gives them in different places. Where a SMILES comes first, the peptide text is derived from it. The star is where a group is joined. Doxorubicin(3'-N) = COc1cccc2c1C(=O)c1c(O)c3c(c(O)c1C2=O)C[C@@](O)(C(=O)CO)C[C@@H]3O[C@H]1C[C@H](N*)[C@H](O)[C@H](C)O1; Hexanoyl(6-maleimido) = O=C1C=CC(=O)N1CCCCCC(=O)*
# Tests used:
# BALB/C mice = assay: Acute toxicity (MTD) of intravenous administration in mice; type: in vivo; settings: 38.4 μmol/kg intravenous, 10 mice, observed 17 days
# Method: They were randomly divided into 7 groups according to body weight, 10 mice in each group. […] The control test of saline group and paclitaxel group injection (commercially available, Beijing Youcare pharmaceutical) was carried out, the volume of administration was 0.2 ml for each mouse.
# [1] = system: Human fibrosarcoma HT-1080 tumor tissue homogenate; assay: Activation in HT-1080 tumor tissue homogenate; type: biochemical; settings: HT-1080 homogenate pH 6.0, 37° C., 1 mg/ml
# Method: (§1) In the experiments of the present disclosure, 1 mg/ml of the sample compound was added to 100 μg of acidified tumor tissue homogenate (pH 6.0) at 37° C. The enzyme in the tumor tissue homogenate can cause the release of doxorubicin, and the reduction of compound and the increase of doxorubicin could be detected by HPLC to compare the activation efficiency of the drug in the tumor tissue.
# HT1080 tumors = assay: HT1080 tumor model in nude mice, 36 umol/kg; type: in vivo; settings: for inhibition in vivo at 36 µmol/kg: Mus musculus, read-out: Tumor inhibition rate Day 28
# Method: • 1. Animals: nude mice aged 6-8 weeks, all female. • 2. Preparation of tumor models • 1) HT1080 cells were purchased from ATCC and characterized according to the instructions provided. […] Randomization was performed when the tumor size reached 100 mm^3. Treatment was then initiated, and the day of initiation of treatment was counted as Day 1. • 3) Treatment process
# According to the clinical application of the corresponding compound, the drug was administered intravenously (IV). The compounds indicated in the table were administered at a low dose and at the same dose of 36 umol/kg.
# [2] = system: Human non-small cell lung cancer A549 tumor tissue homogenate; assay: Activation in A549 tumor tissue homogenate; type: biochemical; settings: A549 homogenate pH 6.0, 37° C., 1 mg/ml
# Method: as §1
# [3] = system: Human hepatoma HepG2 cells; assay: Human liver cancer HepG2 tumors in nude mice; type: in vivo; settings: for inhibition in vivo at 54 µmol/kg: Mus musculus, read-out: Tumor inhibition rate (%) Day 28
# Method: • 1. Animals: nude mice aged 6-8 weeks, all female. • 2. Preparation of tumor models
# Human hepatoma HepG2 cells were purchased from ATCC and identified according to the instructions provided. […] Randomization was performed when the tumor size reached 100 mm^3.
# Treatment was then initiated, and the day of initiation of treatment was counted as Day 1. • 3) Treatment process
# According to the clinical application of the corresponding compound, the drug was administered intravenously (IV). The compound and the control drug were administered at a dose of 54 umol/kg, and DOX could only be administered at a dose of 18 umol/kg due to toxicity limitations.
# [4] = type: physicochemical
# Excerpt: The freeze-dried products EMC-AANL-DOX, HSA-EMC-AANL-DOX, HSA-QHL-087-DOX and HSA-QHL-087-N-CBP prepared by the embodiment of the disclosure are subpackaged in a sterile room and redissolved by water for injection.
# [5] = system: CT26 tumors orthotopically transplanted in liver; assay: Orthotopic liver CT26 tumors, EMC-AANL-DOX, lenvatinib and PD-1; type: in vivo, BALB/c mice; settings: 18 μmol/kg IV once weekly for 3 weeks
# Method: 5×10^5 CT26 cells were injected subcutaneously into the back of nude mice. Randomization was performed when the tumor size reached 800-1000 mm^3. Tumor tissue was then extracted and cut into 100 mm^3 tumor tissue pieces and transplanted orthotopically into BALB/c mouse livers. After one week, when the orthotopically transplanted tumors grew, the mice with orthotopically transplanted tumors were randomized. • 2) Treatment course: 6 mice in one group were treated with drugs. The day of treatment was Day 1. According to the clinical application of EMC-AANL-DOX, the drug was administered intravenously (IV) once weekly for 3 weeks.
# [6] = system: Human breast cancer MDA-MB435 tumor tissue homogenate; assay: Activation in MDA-MB435 tumor tissue homogenate; type: biochemical; settings: MDA-MB435 homogenate pH 6.0, 37° C., 1 mg/ml
# Method: as §1
# [7] = system: Human renal carcinoma OS-RC-2 tumor tissue homogenate; assay: Activation in OS-RC-2 tumor tissue homogenate; type: biochemical; settings: OS-RC-2 homogenate pH 6.0, 37° C., 1 mg/ml
# Method: as §1
# HSA = HSA (Homo sapiens, UniProt P02768); assay: Binding of compounds with HSA (albumin coupling); settings: compound with HSA 3:1, 37° C. for 3 h
# Chain of HSA (P02768 25-609): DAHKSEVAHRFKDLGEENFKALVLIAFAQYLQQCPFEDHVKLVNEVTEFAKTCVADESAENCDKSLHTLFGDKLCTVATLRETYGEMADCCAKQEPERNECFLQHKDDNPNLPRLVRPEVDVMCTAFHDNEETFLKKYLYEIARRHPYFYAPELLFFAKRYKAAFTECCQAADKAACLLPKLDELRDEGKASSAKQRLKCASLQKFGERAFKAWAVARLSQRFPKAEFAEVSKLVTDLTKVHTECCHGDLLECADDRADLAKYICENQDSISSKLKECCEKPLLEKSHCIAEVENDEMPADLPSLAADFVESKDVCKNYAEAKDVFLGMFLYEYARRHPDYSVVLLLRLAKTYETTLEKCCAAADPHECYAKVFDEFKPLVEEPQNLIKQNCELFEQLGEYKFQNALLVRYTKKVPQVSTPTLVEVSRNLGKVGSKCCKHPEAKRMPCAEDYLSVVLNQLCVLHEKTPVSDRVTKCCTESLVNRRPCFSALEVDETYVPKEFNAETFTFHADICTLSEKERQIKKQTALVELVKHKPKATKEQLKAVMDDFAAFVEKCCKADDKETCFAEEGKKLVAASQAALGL
# Method: HSA was dissolved in sterile water. The compound was combined with HSA at a ratio of 3:1 (4.8 umol/mL, 1.6 umol/mL), and reacted in a water bath at 37° C. for 3 h. The reaction solution was taken out, and the unbound compound was filtered by pressurized ultrafiltration membrane, diluted with normal saline and filtered for 3 times to obtain the semi-finished product.
# Human heart = assay: Activation in human heart homogenate; type: biochemical; settings: pH 6.0, 37° C., 1 mg/ml
# [8] = Solution stability, HPLC and electrophoresis; settings: 0.5 mg/ml, pH 5.5, 25° C.
# Method: Add 0.5 ml of sterile water for injection to prepare a 10 mg/ml mother solution. […] Take 30 ul of the mother solution, add 570 ul of buffer solutions with different pH values of 5.5, and prepare a 0.5 mg/ml sample solution. After the sample was clarified, it was placed in a 25° C./37° C. water bath, and after 8 hours, the sample was sampled by HPLC and electrophoresis to detect the content of the sample relative to 0 hours, and the solution stability data of different compounds could be obtained.
Compound,Number of dead mice (BALB/C mice),Compound activation ratios (%) [1] [%],Tumor volume (mm^3) Day 28 (HT1080 tumors; 36 umol/kg IV once a week for 3 weeks) [mm^3],"inhibition in vivo at 36 µmol/kg (HT1080 tumors; HT-1080, 672 h, 36 umol/kg IV once a week for 3 weeks) [%]",Compound activation ratios (%) [2] [%],Tumor volume (mm^3) Day 28 ([3]; 54 umol/kg IV once a week for 4 weeks) [mm^3],"inhibition in vivo at 54 µmol/kg ([3]; HepG2, 672 h, 54 umol/kg IV once a week for 4 weeks) [%]","therapeutic effect on liver cancer, in words ([3]; same molar dose)",Solubility in water for injection [4],efficacy combined with lenvatinib (FIG. 11) [5],efficacy combined with PD-1 (FIG. 11) ([5]; PD-1 5 mg/kg twice weekly),Compound activation ratios (%) [6] [%],Compound activation ratios (%) [7] [%],binding rates of HSA (HSA) [%],Compound activation ratios (%) (Human heart),"inhibition in vivo at 36 µmol/kg (HT1080 tumors; HT-1080, iv, 672 h) [%]","inhibition in vivo at 54 µmol/kg ([3]; HepG2, iv, 672 h) [%]","Stability data of the solution, 8 hr (content relative to 0 hours) [8] [%]"
COc1cccc2c1C(=O)c1c(O)c3c(c(O)c1C2=O)C[C@@](O)(C(=O)CO)C[C@@H]3O[C@H]1C[C@H](NC(=O)[C@H](CC(C)C)NC(=O)[C@H](CC(N)=O)NC(=O)[C@H](C)NC(=O)[C@H](C)NC(=O)CCCCCN2C(=O)C=CC2=O)[C@H](O)[C@H](C)O1 [EMC-AANL-DOX] ({Hexanoyl(6-maleimido)}-AANL-{Doxorubicin(3'-N)}),8,44.7,138.3 ± 124.6,92.1,46.4,218.3 ± 167.7,92.5,good effect on the treatment of liver cancer,Insolubility,superior to that of each monotherapy,superior to that of lenvatinib combined with PD-1,42.3,46.4,62,0.2,–,–,–
COc1cccc2c1C(=O)c1c(O)c3c(c(O)c1C2=O)C[C@@](O)(C(=O)CO)C[C@@H]3O[C@H]1C[C@H](NC(=O)[C@H](CC(C)C)NC(=O)[C@H](CC(N)=O)NC(=O)[C@H](C)NC(=O)[C@H](C)NC(=O)CCOCCOCCNC(=O)CCN2C(=O)C=CC2=O)[C@H](O)[C@H](C)O1 [QHL-087-DOX],4,–,–,–,–,–,–,–,–,–,–,–,–,–,–,100,100,98.2
